Data reported in patent US9079895B2, “Morpholino compounds, uses and methods” (University of Dundee, priority 2012, dated 2015).

Experiments:
Settings in all cases: average of at least two experiments
[1] = target: 5HT3 receptor (Homo sapiens (Human), UniProt P46098); assay: Secondary radioligand binding assay, 5HT3; set-up: key: “—” indicates that a binding interaction was not detected;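 also: radioligand competition binding on membranes from transfected cell lines, 1.5 h incubation at room temperature, filter-retained radioactivity measured by liquid scintillation counting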
Chain of 5HT3 receptor (P46098 24-478): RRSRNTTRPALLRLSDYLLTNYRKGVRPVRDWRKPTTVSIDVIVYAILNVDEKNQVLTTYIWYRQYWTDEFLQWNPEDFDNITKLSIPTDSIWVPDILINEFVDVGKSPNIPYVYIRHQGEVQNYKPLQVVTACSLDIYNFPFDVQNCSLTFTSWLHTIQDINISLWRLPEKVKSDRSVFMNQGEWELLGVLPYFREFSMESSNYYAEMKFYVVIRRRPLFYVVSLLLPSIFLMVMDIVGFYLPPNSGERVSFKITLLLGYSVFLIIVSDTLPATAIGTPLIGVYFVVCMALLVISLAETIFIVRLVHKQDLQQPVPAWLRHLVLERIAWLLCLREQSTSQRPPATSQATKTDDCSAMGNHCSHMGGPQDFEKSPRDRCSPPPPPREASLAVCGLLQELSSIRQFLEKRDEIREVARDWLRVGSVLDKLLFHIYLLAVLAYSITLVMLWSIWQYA

[2] = target: dopamine D2 receptor (Homo sapiens (Human), UniProt P14416); assay: Secondary radioligand binding assay, D2; set-up: key to Ki D2: “—” indicates that a binding interaction was not detected
Chain of dopamine D2 receptor (P14416 whole entry, species assumed): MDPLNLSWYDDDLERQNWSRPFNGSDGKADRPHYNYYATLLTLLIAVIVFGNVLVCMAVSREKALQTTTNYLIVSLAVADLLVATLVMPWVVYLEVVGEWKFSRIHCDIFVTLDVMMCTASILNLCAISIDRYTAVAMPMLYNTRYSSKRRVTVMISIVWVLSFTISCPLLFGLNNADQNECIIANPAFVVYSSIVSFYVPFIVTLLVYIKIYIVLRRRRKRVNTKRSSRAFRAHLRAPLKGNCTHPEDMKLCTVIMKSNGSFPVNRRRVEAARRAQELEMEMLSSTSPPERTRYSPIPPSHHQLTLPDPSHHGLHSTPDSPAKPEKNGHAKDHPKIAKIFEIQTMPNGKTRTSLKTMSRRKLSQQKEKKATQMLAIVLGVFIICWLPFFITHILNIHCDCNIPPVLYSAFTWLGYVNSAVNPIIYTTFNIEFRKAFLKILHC
Procedure: (§1) 1. Secondary Radioligand Binding Assays
(§2) The detailed experimental protocols for the radioligand and functional receptor assays are available on the NIMH PDSP website at http://pdsp.med.unc.edu/UNC-CH %20Protocol %20Book.pdf.
(§3) Radioligand is diluted to five times the assay concentration (see Table 18) in Standard Binding Buffer. Typically, the assay concentration of radioligand is a value between one half the KD and the KD of a particular radioligand at its target. 50 μl aliquots of radioligand are dispensed into the wells of a 96-well plate containing 100 μl of Standard Binding Buffer. Then, duplicate 50 μl aliquots of the test and reference compound dilutions are added.
(§4) The 250 μl reactions are incubated at room temperature and shielded from light (to prevent photolysis of light-sensitive ligands) for 1.5 hours, then harvested by rapid filtration onto Whatman GF/B glass fiber filters pre-soaked with 0.3% polyethyleneimine using a 96-well Brandel harverster. Four rapid 500 μl washes are performed with chilled Standard Binding Buffer to reduce non-specific binding. Filters are placed in 6 ml scintillation tubes and allowed to dry overnight. The next day, 4 ml of EcoScint scintillation cocktail (National Diagnostics) are added to each tube. The tubes are capped, labeled, and counted by liquid scintillation counting. […] The filter mats are dried, then scintillant is melted onto the filters and the radioactivity retained on the filters is counted in a Microbeta scintillation counter.
(§5) Raw data (dpm) representing total radioligand binding (i.e. specific+non-specific binding) are plotted as a function of the logarithm of the molar concentration of the competitor (i.e. test or reference compound).
(§6) B. Dopamine Receptors: D1, D2, D3, D4, D5 Assay Buffers: Dopamine Binding Buffer (50 mM NaCl, 50 mM HEPES-HCl, 5 mM MgCl2, 0.5 mM EDTA, pH 7.4) Membrane Fraction Source: Transiently or stably transfected cell lines (e.g. HEK293, COS, CHO, NIH3T3)
(§7) The method is carried out in the manner described for the serotonin receptor assay above. Eleven dilutions (5× assay concentration) of the test and reference (see Table 19) compounds are prepared in Dopamine Binding Buffer by serial dilution, as previously described. Radioligand is diluted to five times the assay concentration (see Table 20) in Dopamine Binding Buffer.

[3] = target: dopamine D5 receptor (Homo sapiens (Human), UniProt P21918); assay: Secondary radioligand binding assay, D5; set-up: key to Ki D5: “—” indicates that a binding interaction was not detected
Chain of dopamine D5 receptor (P21918 whole entry): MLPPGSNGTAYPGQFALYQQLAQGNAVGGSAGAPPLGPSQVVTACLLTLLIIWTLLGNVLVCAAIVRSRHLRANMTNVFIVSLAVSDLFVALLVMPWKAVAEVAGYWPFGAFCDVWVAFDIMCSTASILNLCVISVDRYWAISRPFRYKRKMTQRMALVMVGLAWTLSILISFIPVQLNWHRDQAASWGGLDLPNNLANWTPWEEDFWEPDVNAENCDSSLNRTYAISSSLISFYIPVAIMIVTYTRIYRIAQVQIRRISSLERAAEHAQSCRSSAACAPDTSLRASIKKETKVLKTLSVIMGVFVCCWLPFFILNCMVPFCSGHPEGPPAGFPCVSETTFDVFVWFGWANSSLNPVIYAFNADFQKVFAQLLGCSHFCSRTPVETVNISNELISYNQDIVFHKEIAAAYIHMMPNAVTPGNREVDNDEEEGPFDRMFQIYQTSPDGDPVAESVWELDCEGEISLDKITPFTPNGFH
Procedure: as §1, §2, §3, §4, §5, §6, §7

[4] = target: 5HT5 receptor (Homo sapiens (Human), UniProt P47898); assay: Secondary radioligand binding assay, 5HT5; set-up: key: “—” indicates that a binding interaction was not detected;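 also: competitive radioligand displacement on membranes from transfected cell lines, incubated at room temperature in the dark, filter-retained radioactivity counted by liquid scintillation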
Chain of 5HT5 receptor (P47898 whole entry): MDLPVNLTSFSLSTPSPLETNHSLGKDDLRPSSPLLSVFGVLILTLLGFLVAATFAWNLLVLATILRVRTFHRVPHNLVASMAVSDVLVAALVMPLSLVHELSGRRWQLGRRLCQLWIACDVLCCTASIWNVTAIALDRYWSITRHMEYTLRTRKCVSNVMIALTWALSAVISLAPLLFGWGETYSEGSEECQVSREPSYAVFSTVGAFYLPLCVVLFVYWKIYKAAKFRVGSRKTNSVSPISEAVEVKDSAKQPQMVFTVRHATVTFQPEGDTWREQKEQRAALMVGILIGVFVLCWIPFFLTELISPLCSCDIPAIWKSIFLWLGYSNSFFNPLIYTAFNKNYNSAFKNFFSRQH

[5] = target: Alpha1A adrenergic receptor (Homo sapiens (Human), UniProt P35348); assay: Secondary radioligand binding assay, Alpha1A; set-up: key to Ki Alpha1A: “—” indicates that a binding interaction was not detected
Chain of Alpha1A adrenergic receptor (P35348 whole entry): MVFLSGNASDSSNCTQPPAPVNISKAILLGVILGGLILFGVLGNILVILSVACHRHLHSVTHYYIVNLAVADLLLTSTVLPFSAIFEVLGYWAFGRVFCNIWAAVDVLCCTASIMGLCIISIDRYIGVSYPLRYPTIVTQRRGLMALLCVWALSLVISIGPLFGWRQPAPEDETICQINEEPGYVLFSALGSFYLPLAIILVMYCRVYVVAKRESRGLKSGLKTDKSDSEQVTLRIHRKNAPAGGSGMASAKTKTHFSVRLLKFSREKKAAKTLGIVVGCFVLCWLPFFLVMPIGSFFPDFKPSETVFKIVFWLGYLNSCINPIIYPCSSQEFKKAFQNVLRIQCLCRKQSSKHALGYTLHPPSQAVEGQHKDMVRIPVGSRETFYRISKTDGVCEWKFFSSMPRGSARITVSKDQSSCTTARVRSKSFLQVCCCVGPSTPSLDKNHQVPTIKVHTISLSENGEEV
From the text: 1. Secondary Radioligand Binding Assays The detailed experimental protocols for the radioligand and functional receptor assays are available on the NIMH PDSP website at http://pdsp.med.unc.edu/UNC-CH %20Protocol %20Book.pdf. Raw data (dpm) representing total radioligand binding (i.e. specific+non-specific binding) are plotted as a function of the logarithm of the molar concentration of the competitor (i.e. test or reference compound). […] C. Adrenergic Receptors: α1A, α1B, α2A, α2B, α2C, β1, β2, β3 Assay Buffers: For α1 receptors, α1 Binding Buffer (20 mM Tris-HCl, 145 mM NaCl, pH 7.4); for α2 receptors, α2 Binding Buffer (50 mM Tris-HCl, 5 mM MgCl2, pH 7.7); for β receptors, β Binding Buffer (50 mM Tris-HCl, 3 mM MnCl2, pH 7.7) Membrane Fraction Source: Transiently or stably transfected cell lines (e.g. HEK293, COS, CHO, NIH3T3) Protocol adapted from Arango et al. […] (1990), Gen. Psychiatry, 47: 1038-1047. The method is carried out in the manner described for the serotonin receptor assay above, except where described below. Eleven dilutions (5× assay concentration) of the test and reference (see Table 20) compounds are prepared in the appropriate buffer by serial dilution, as previously described. Radioligand is diluted to five times the assay concentration (see Table 21) in the appropriate buffer. […] Four rapid 500-μl washes are performed with chilled distilled water (for α1 and β receptors) or 0.1% polyethyleneimine (for α2 receptors) to reduce non-specific binding. Filters are placed in 6 ml scintillation tubes and allowed to dry overnight and the samples are treated to obtain data as described above. [table]

[6] = target: 5HT2b receptor (Homo sapiens (Human), UniProt P41595); assay: Secondary radioligand binding assay, 5HT2b; set-up: key to Ki 5HT2b: “—” indicates that a binding interaction was not detected;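 also: competition binding against a radioligand on membranes from transfected cell lines, 1.5 h incubation at room temperature, filter-retained radioactivity counted by liquid scintillation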
Chain of 5HT2b receptor (P41595 whole entry): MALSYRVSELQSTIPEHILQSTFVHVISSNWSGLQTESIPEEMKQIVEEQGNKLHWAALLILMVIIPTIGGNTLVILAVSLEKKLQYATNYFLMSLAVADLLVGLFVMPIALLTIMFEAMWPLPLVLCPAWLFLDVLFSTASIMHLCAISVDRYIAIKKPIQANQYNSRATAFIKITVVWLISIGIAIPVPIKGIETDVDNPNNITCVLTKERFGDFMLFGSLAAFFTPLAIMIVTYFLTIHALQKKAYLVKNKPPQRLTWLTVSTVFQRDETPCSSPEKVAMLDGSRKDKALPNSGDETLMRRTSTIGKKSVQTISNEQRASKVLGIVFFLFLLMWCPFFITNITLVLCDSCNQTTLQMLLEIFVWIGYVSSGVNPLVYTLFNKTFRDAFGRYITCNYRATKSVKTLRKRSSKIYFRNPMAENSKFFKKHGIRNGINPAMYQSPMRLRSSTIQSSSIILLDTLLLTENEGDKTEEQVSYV

[7] = target: 5HT1d receptor (Homo sapiens (Human), UniProt P28221); assay: Secondary radioligand binding assay, 5HT1d; set-up: key to Ki 5HT1d: “—” indicates that a binding interaction was not detected;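 also: competition binding against a radioligand on membranes from transfected cell lines, 1.5 h at room temperature, filter-retained radioactivity counted by liquid scintillation, total binding plotted versus log competitor concentration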
Chain of 5HT1d receptor (P28221 whole entry): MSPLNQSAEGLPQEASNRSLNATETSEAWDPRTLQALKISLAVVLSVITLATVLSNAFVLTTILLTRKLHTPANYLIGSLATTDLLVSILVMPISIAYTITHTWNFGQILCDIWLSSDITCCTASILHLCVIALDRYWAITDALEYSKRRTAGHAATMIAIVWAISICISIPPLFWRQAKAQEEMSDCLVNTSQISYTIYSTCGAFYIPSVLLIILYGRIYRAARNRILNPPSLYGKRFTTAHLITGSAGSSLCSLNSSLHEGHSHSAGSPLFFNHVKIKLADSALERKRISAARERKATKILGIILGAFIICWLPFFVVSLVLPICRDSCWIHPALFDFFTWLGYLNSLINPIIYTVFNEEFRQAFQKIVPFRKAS

[8] = target: 5HT1e receptor (Homo sapiens (Human), UniProt P28566); assay: Secondary radioligand binding assay, 5HT1e; set-up: key: “—” indicates that a binding interaction was not detected;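 also: competition binding against a radioligand on membranes from transfected cell lines, 1.5 h at room temperature, bound radioactivity counted by liquid scintillation after filtration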
Chain of 5HT1e receptor (P28566 whole entry): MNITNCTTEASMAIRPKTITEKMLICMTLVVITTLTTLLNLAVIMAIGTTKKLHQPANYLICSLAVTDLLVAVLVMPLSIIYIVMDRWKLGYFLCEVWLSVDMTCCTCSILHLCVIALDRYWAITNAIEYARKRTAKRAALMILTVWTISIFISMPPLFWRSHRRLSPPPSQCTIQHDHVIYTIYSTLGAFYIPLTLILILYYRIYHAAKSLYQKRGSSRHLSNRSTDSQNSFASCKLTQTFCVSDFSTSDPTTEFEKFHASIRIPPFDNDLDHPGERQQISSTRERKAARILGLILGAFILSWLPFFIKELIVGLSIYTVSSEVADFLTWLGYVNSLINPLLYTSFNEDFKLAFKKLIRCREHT

Row | Ki 5HT3 [1] | Ki D5 [3] | Ki 5HT5 [4] | Ki Alpha1A [5] | Ki 5HT2b [6] | Ki 5HT1d [7] | Ki 5HT1e [8] | Ki D2 [2] | Ki [6] [nM] | Compound | Ki [2] [nM] | Ki [5] [nM] | Ki [7] [nM] | Ki [3] [nM]
1 | — | — | — | — | — | — | — | — |  | Cc1ccnc(OC[C@H]2CN(CC(=O)N3CCc4ccccc43)CCO2)c1 [Compound 16r] |  |  |  | 
2 | — | — | — | — | — | — | — | — |  | Cc1ncccc1OC[C@@H]1CN(CC(=O)N2c3ccccc3C[C@H]2C)CCO1 [Compound 61] |  |  |  | 
3 | — | — | — | — |  | — | — | — | 600 | c1ccc(OC[C@H]2CN(CCN3CCc4ccccc43)CCO2)nc1 [Compound 15r, (R)-4-(2-(Indolin-1-yl)ethyl)-2-((pyridin-2-yloxy)methyl)morpholine] |  |  |  | 
4 | — | — | — | — | — | — | — | — |  | CC1Cc2ccccc2N1C(=O)CN1CCO[C@@H](COc2ccncc2)C1 (stereo partly shown) [Compound 68] |  |  |  | 
5 | — | — | — | — |  | — | — | — | 3170 | Cc1ncccc1OC[C@H]1CN(CCN2CCc3ccccc32)CCO1 [Compound 26r, (R)-4-(2-(Indolin-1-yl)ethyl)-2-(((2-methylpyridin-3-yl)oxy)methyl)morpholine] |  |  |  | 
6 | — | — | — | — |  | — | — | — | 3460 | Cc1ccnc(OC[C@H]2CN(CC(=O)N3c4ccccc4CC3C)CCO2)c1 (stereo partly shown) [Compound 70] |  |  |  | 
7 | — | — | — | — | — | — | — | — |  | C[C@@H]1Cc2ccccc2N1C(=O)CN1CCO[C@@H](COc2ccncc2)C1 [Compound 67] |  |  |  | 
8 | — | — | — | — | — | — | — | — |  | CC1Cc2ccccc2N1C(=O)CN1CCO[C@@H](COc2ccccn2)C1 (stereo partly shown) [Compound 69] |  |  |  | 
9 | — | — | — | — | — | — | — | — |  | Cc1ncccc1OC[C@H]1CN(CC(=O)N2c3ccccc3C[C@H]2C)CCO1 [Compound 63] |  |  |  | 
10 | — | — | — | — |  | — | — | — | 2560 | Clc1cncc(OC[C@H]2CN(CCN3CCc4ccccc43)CCO2)c1 [Compound 27r, (R)-2-(((5-Chloropyridin-3-yl)oxy)methyl)-4-(2-(indolin-1-yl)ethyl)morpholine] |  |  |  | 

Row | Compound | Ki 5HT3 [1] | Ki D5 [3] | Ki 5HT5 [4] | Ki Alpha1A [5] | Ki 5HT2b [6] | Ki 5HT1d [7] | Ki 5HT1e [8] | Ki D2 [2] | Ki [6] [nM] | Ki [2] [nM] | Ki [5] [nM] | Ki [7] [nM] | Ki [3] [nM]
11 | Clc1cncc(OC[C@@H]2CN(CCN3CCc4ccccc43)CCO2)c1 [Compound 27s, (S)-2-(((5-Chloropyridin-3-yl)oxy)methyl)-4-(2-(indolin-1-yl)ethyl)morpholine] | — | — | — | — | — | — | — |  |  | > 10000 |  |  | 
12 | c1ccc(OC[C@@H]2CN(CCN3CCc4ccccc43)CCO2)cc1 [Compound 19s, (S)-4-(2-(Indolin-1-yl)ethyl)-2-(phenoxymethyl)morpholine] | — | — | — |  |  |  | — |  | 1440 | 342 | 2720 | 590 | 
13 | c1cncc(OC[C@@H]2CN(CCN3CCc4ccccc43)CCO2)c1 [Compound 21s, (S)-4-(2-(Indolin-1-yl)ethyl)-2-((pyridin-3-yloxy)methyl)morpholine] | — |  | — | — | — | — | — |  |  | > 10000 |  |  | > 10000
14 | O=C(CN1CCO[C@H](COc2ccccc2)C1)N1CCc2ccccc21 [Compound 18s, (S)-1-(Indolin-1-yl)-2-(2-(phenoxymethyl)morpholino)ethanone] | — | — | — | — |  | — | — | — | 6420 |  |  |  | 
15 | Cc1ccc(OC[C@@H]2CN(CCN3CCc4ccccc43)CCO2)cn1 [Compound 28s, (S)-4-(2-(Indolin-1-yl)ethyl)-2-(((6-methylpyridin-3-yl)oxy)methyl)morpholine] | — | — | — | — | — | — | — | — |  |  |  |  | 
16 | O=C(CN1CCO[C@@H](COc2ccccn2)C1)N1CCc2ccccc21 [Compound 14r, (R)-1-(Indolin-1-yl)-2-(2-((pyridin-2-yloxy)methyl)morpholino)ethanone] | — | — | — | — | — | — | — | — |  |  |  |  | 
17 | O=C(CN1CCO[C@@H](COc2cccnc2)C1)N1CCc2ccccc21 [Compound 20r, (R)-1-(Indolin-1-yl)-2-(2-((pyridin-3-yloxy)methyl)morpholino)ethanone] | — | — | — | — |  | — | — | — | 8810 |  |  |  | 
